Laboratory results published in patent US12144791B2, “KRAS agonists, pharmaceutical compositions, and uses in managing cancer” (Emory University, priority 2019, dated 2024).
Entries after “also recorded” stand apart in the source; their conditions may differ.

Assays:
human lung cancer cells = experiment: Screening of cytotoxicity by sulforhodamine B (SRB) assay; type: cell-based; conditions: among top 500 docked NCI small molecules
Excerpt: A library containing small molecules from the National Cancer Institute (NCI) was employed to dock the GTP/GDP binding pocket of KRAS (PDB ID code: 4EPT) using the University of California, San Francisco (UCSF) DOCK 6.1 program suite. The small molecules were ranked according to their energy scores. Top 500 small molecules with predicted binding energies were selected for screening of cytotoxicity in human lung cancer cells by sulforhodamine B (SRB) assay. […] This lead compound was named KRAS agonist-533 (KRA-533) (FIG. 1A). To test whether KRA-533 regulates KRAS activity in lung cancer cells, human lung cancer cell lines with or without KRAS mutation were treated with KRA-533 (10 μM) for 48 h. […] Cell proliferation was also measured following treatment of cells for 48 h using MTS Cell Proliferation Colorimetric Assay Kit.

KRAS S17A/K117A (AA) = molecular target: T1, KRAS S17A/K117A (AA) (Homo sapiens, UniProt P01116, K117A/S17A); experiment: Thermal shift assay, purified KRAS S17A/K117A (AA); type: binding
T1 construct: made in house
Description: (§1) Melting temperature (Tm) values of DMSO control and 15 μM KRA-533 are shown.
(§2) To further test this intracellularly, GFP-tagged WT, S17A, K117A and AA KRAS mutants were exogenously transfected into A549 cells. […] Activities of exogenous GFP-tagged WT and KRAS mutants were analyzed by Western blot using GFP antibody.

GFP-tagged KRAS WT = molecular target: T2, GFP-tagged KRAS WT (Homo sapiens, UniProt P01116); experiment: Raf-1-RBD pull-down of exogenous GFP-tagged KRAS WT in A549 cells; type: cell-based; conditions: 15 μM, 48 h
T2 construct: expressed in transfected cells; host or cells: A549
Description: (§3) The GFP-tagged exogenous KRAS-GTP (GFP-KRAS-GTP) was analyzed by Western blot using anti-GFP antibody.
as §2

KRAS G12D = KRAS G12D (Homo sapiens, UniProt P01116, G12D); experiment: Thermal shift assay, purified KRAS G12D; type: binding; conditions: increasing concentrations
Description: (§4) Melting temperature (Tm) values of DMSO Ctrl and 15 μM of KRA-533 are shown.
(§5) To test whether KRA-533 directly binds to KRAS, a thermal shift assay was employed. […] To further assess whether KRA-533 activates KRAS directly, an in vitro cell-free GDP-GTP exchange experiment was carried out. Purified WT, G12C, G12D or G13D mutant KRAS proteins were incubated with purified GEF (RASGRP1) and GAP (RASA1) proteins in reaction buffer containing [γ-35S]-GTP in the absence or presence of increasing concentrations of KRA-533 at 25° C. for 60 min. KRAS activity was quantified by liquid scintillation counting. […] These findings indicate that KRA-533 not only activates WT KRAS but also has the capacity to further enhance KRAS activity of mutant KRAS.

NSCLC cells = experiment: Colony formation assay; type: cell-based, human; conditions: 10 μM, 10 days; A549, H358, H157, Calu-1, H1972 vs H292, HCC827, H1975, H322
KRAS S17A = molecular target: T3, KRAS S17A (Homo sapiens, UniProt P01116, S17A); experiment: Thermal shift assay, purified KRAS S17A; type: binding
T3 construct: made in house
Description: as §1, §2

[1] = test system: A549, H157, Calu-1 and H292 cells; experiment: Apoptosis by FACS analysis of Annexin V/PI staining; type: cell-based, human
Description: Activated KRAS can trigger cell death via apoptosis and autophagy-associated cell death in cancer cells. To test whether KRA-533- activated KRAS promotes apoptosis and autophagic cell death, A549, H157, Calu-1 and H292 cells were treated with increasing concentrations of KRA-533 for 48 h, followed by analysis of KRAS activity, apoptosis and autophagy. […] Autophagy was measured by analysis of LC3-I/LC3-II and p62 following treatment of cells with KRA-533. It is well known that p62 is an autophagy receptor or substrate that can be degraded by autophagy. In addition to LC3-II, p62 was analyzed as another autophagy marker. […] To further quantify the level of autophagy, a GFP-LC3 construct was used to indicate autophagosomes. After treatment with KRA-533, GFP-LC3 redistributed from a diffuse staining pattern in the cytoplasm and nucleus to a cytoplasmic punctate structure that specifically labels pre-autophagosomal and autophagosomal membranes (i.e. GFP-LC3 vac cells). […] These findings indicate that, in addition to apoptosis, KRA-533 can also induce autophagic cell death.

GFP-tagged KRAS S17A = molecular target: T4, GFP-tagged KRAS S17A (Homo sapiens, UniProt P01116, S17A); experiment: Raf-1-RBD pull-down of exogenous GFP-tagged KRAS S17A in A549 cells; type: cell-based; conditions: 15 μM, 48 h
T4 construct: expressed in transfected cells; host or cells: A549
Description: as §3, §2

A549 cells = experiment: Apoptotic and autophagic cell death after KRAS shRNA knockdown; type: cell-based, human; conditions: G12S mutant KRAS depleted by KRAS shRNA; 15 μM, 48 h
Description: To further test whether KRAS is a required target for KRA-533 to induce apoptotic and autophagic cell death, G12S mutant KRAS was depleted using KRAS shRNA from A549 cells, followed by treatment with KRA-533 (15 μM) for 48 h.

KRAS G12C = KRAS G12C (Homo sapiens, UniProt P01116, G12C); experiment: Thermal shift assay, purified KRAS G12C; type: binding; conditions: increasing concentrations
Description: as §4, §5

WT KRAS = WT KRAS (Homo sapiens, UniProt P01116); experiment: In vitro cell-free GDP-GTP exchange, WT KRAS; type: biochemical; conditions: with GEF (RASGRP1) and GAP (RASA1), 25° C., 60 min
Description: GTPγS, purified GFP (RASGRP1, 180 nM) and GAP (RASA1, 180 nM) at 25° C. in the presence or absence of increasing concentrations of KRA-533.
GTPγS, purified GFP (RASGRP1, 180 nM) and GAP (RASA1, 180 nM) at 25° C. in the presence or absence of 15 μM KRA-533. The radioactivity remaining on the protein after intensive washing was quantified by liquid scintillation.
as §5, §2

A549 and H157 cells = experiment: Western blot of autophagy marker p62 with or without chloroquine; type: cell-based, human; conditions: 48 h
Description: To assess whether the autophagy inhibitor regulates KRA-533-induced autophagy formation, A549 and H157 cells were treated with KRA-533 in the absence or presence of autophagy inhibitor chloroquine for 48 h, followed by Western blot analysis of the autophagy marker p62.

For `O=C(CBr)NCCCCc1ccc(C(=O)O)cc1` [KRA-533, 4-(4-(2-bromoacetamido)butyl)benzoic acid], the “activity against human lung cancer cells (cytotoxicity, SRB assay)” value (human lung cancer cells) was “the most potent activity against human lung cancer cells”, the “binding (thermal shift), AA (S17A/K117A) KRAS” value (KRAS S17A/K117A (AA)) was “failed to bind” and the “activity of exogenous GFP-tagged WT KRAS (GFP-KRAS-GTP)” value (GFP-tagged KRAS WT) was “activated exogenous WT and S17A”. For the same molecule, the “melting temperature (Tm) / binding, KRAS G12D” value (KRAS G12D) was “Dose dependent increases in melting temperature (Tm)”, the “cell growth suppression (colony formation), KRAS mutant versus non-mutant cell lines” value (NSCLC cells) was “relatively more sensitive to KRA-533-mediated cell growth suppression than those without KRAS mutation” and the “binding (thermal shift), KRAS S17A” value (KRAS S17A) was “could bind”. For the same molecule, the “apoptotic cell death (Annexin V/PI)” value ([1]; 0, 5, 10, 15 μM, 48 h) was “leading to apoptotic cell death”, the “sensitivity to KRAS activation, induction of apoptosis and autophagy, KRAS mutant cells versus H292” value ([1]; A549, H157 and Calu-1 vs H292, 48 h) was “significantly more sensitive than H292 cells without KRAS mutation” and the “activity of exogenous GFP-tagged S17A KRAS (GFP-KRAS-GTP)” value (GFP-tagged KRAS S17A) was “activated exogenous WT and S17A”. The “cell sensitivity to apoptotic and autophagic cell death after knockdown of mutant KRAS” value (A549 cells) was “significantly reduced cell sensitivity to the induction of apoptotic and autophagic cell death”, the “melting temperature (Tm) / binding, KRAS G12C” value (KRAS G12C) was “Dose dependent increases in melting temperature (Tm)” and the “KRAS activity (liquid scintillation), WT KRAS” value (WT KRAS) was “activated WT KRAS to increase its activity in a dose-dependent manner; also recorded: directly activated”. For the same molecule, the “autophagy marker p62, KRA-533 alone” value (A549 and H157 cells) was “induced autophagy with deceased p62 level via degradation”.
